Assay [1] deals with T1, EcSerRS (Escherichia coli, UniProt P0A8L1). Put plainly: continuous coupled spectrophotometric assay of adenylate formation. Format: biochemical.
In assay [2] the target is T2, SaSerRS (Staphylococcus aureus, UniProt P95689). The assay is described as above. Format: biochemical.
In assay [3] the target is T3, HsSerRS (Homo sapiens, UniProt P49591). Format: biochemical.
In assay [4] the target is T1, EcSerRS. Put plainly: biochemical.
Assay [5] addresses T2, SaSerRS. Put plainly: biochemical.
Assay [6] addresses T3, HsSerRS. The assay is described as follows: biochemical.
[7] abbreviates: pH 7.6, 37 °C, 10 mM MgCl2, 10% DMSO.

Ten molecules from article doi:10.1101/586255v1 (biorxiv, 2019) can be followed below.

The structures appear in SMILES notation. Where two headings read alike, the source gives them in different places.

T3 sequence (P49591 whole entry, looked up): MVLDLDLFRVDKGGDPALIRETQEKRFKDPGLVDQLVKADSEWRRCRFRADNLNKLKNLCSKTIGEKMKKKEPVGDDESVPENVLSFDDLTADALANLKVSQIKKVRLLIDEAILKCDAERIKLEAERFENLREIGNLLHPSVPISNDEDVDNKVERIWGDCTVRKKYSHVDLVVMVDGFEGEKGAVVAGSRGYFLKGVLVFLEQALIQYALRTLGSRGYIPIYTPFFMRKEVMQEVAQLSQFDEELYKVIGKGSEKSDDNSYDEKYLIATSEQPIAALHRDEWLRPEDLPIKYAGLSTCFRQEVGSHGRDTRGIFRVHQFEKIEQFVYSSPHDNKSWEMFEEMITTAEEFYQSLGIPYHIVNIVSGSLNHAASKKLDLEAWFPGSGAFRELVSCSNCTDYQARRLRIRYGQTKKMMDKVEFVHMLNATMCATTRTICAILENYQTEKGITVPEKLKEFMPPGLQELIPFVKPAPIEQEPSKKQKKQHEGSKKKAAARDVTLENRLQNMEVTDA
T1 sequence (P0A8L1 whole entry): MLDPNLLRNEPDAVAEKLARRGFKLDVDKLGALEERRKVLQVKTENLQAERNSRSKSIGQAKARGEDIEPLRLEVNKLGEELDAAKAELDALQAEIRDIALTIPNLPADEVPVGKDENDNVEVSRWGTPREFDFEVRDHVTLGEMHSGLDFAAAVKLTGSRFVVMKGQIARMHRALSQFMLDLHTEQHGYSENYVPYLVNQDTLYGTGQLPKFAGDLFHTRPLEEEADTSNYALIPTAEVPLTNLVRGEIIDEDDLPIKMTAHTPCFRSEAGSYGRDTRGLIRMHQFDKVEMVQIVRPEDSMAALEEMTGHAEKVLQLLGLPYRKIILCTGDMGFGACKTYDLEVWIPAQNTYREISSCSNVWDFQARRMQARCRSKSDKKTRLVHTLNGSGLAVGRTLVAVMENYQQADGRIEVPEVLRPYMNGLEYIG
T2 sequence (P95689 whole entry): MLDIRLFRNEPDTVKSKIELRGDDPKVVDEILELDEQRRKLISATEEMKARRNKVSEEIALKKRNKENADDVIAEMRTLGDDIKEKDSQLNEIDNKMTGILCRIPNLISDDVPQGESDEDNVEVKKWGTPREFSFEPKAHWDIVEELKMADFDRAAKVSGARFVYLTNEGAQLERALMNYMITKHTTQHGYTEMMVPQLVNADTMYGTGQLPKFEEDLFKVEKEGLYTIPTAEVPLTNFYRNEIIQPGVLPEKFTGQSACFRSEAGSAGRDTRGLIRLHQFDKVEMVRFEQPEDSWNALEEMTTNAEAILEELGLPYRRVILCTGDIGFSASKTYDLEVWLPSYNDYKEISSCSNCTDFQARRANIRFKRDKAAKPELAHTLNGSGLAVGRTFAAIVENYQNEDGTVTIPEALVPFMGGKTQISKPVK

For orientation: IC50 means the midpoint of a concentration-inhibition curve. For the molecule `Nc1nc(-c2ccccc2)nc2c1ncn2[C@@H]1O[C@H](COS(=O)(=O)NC(=O)[C@@H](N)CO)[C@@H](O)[C@H]1O` [compound 4], the IC50 against EcSerRS [1] (setting [7]) turned out to be 17.7 ± 1.42 µM; on SaSerRS [2] (setting [7]), 52.7 ± 4.81 µM.
Consider `Nc1ncnc2c1ncn2[C@@H]1O[C@H](COS(=O)(=O)NC(=O)[C@@H](N)CO)[C@@H](O)[C@H]1O` [compound 1, SerSA], for which the IC50 at EcSerRS [1] (setting [7]) worked out at 0.21 ± 0.03 µM; at SaSerRS [2] (pH 7.6, 37 °C, 10 mM MgCl2, 10% DMSO, error as printed is larger than the value) it was 0.23 ± 0.49 µM; at HsSerRS [3], 2.17 ± 0.21 µM.
As for `Nc1nc(I)nc2c1ncn2[C@@H]1O[C@H](COS(=O)(=O)NC(=O)[C@@H](N)CO)[C@@H](O)[C@H]1O` [compound 3], the IC50 at EcSerRS [1] (setting [7]) turned out to be 1.36 ± 0.12 µM; on SaSerRS [2] (setting [7]), 0.38 ± 0.04 µM.
As for `C[C@H](N)C(=O)NS(=O)(=O)OC[C@H]1O[C@@H](n2cnc3c(N)ncnc32)[C@H](O)[C@@H]1O` [compound 9, AlaSA], the IC50 against EcSerRS [4], at SaSerRS [5] and at HsSerRS [6] was more than 1000 µM throughout.
For the molecule `C[C@@H](O)[C@H](N)C(=O)NS(=O)(=O)OC[C@H]1O[C@@H](n2cnc3c(N)ncnc32)[C@H](O)[C@@H]1O` [compound 10, ThrSA], the figures for the concentration for half-maximal inhibition (IC50) at EcSerRS [1], on SaSerRS [2] and at HsSerRS [6] were 285 µM, 231 µM and more than 1000 µM, respectively.
Regarding `Nc1nc(-c2ccsc2)nc2c1ncn2[C@@H]1O[C@H](COS(=O)(=O)NC(=O)[C@@H](N)CO)[C@@H](O)[C@H]1O` [compound 7], the IC50 worked out at 1.44 ± 0.09 µM on EcSerRS [1] (setting [7]) and 1.24 ± 0.12 µM at SaSerRS [2] (setting [7]).
On to `Nc1nc(Cl)nc2c1ncn2[C@@H]1O[C@H](COS(=O)(=O)NC(=O)[C@@H](N)CO)[C@@H](O)[C@H]1O` [compound 2], for which the IC50 against EcSerRS [1] (setting [7]) is 0.45 ± 0.05 µM; on SaSerRS [2] (setting [7]) it was 0.26 ± 0.03 µM.
For `C/C=C/c1nc(N)c2ncn([C@@H]3O[C@H](COS(=O)(=O)NC(=O)[C@@H](N)CO)[C@@H](O)[C@H]3O)c2n1` [compound 5] the same measures were 9.38 ± 0.7 µM and 3.46 ± 0.47 µM.
For `Nc1nc(-c2ccco2)nc2c1ncn2[C@@H]1O[C@H](COS(=O)(=O)NC(=O)[C@@H](N)CO)[C@@H](O)[C@H]1O` [compound 6] the same measures were 36.2 ± 2.41 µM and 32.4 ± 3.56 µM.
In the same order, the values of `Nc1nc(-c2cccnc2)nc2c1ncn2[C@@H]1O[C@H](COS(=O)(=O)NC(=O)[C@@H](N)CO)[C@@H](O)[C@H]1O` [compound 8] are 6.65 ± 0.64 µM and 6.34 ± 0.71 µM.
